Test results taken from patent US20140378306A1, “USE OF 5-PHENYL- OR 5-BENZYL-2 ISOXAZOLINE-3 CARBOXYLATES FOR IMPROVING PLANT YIELD” (Bayer Intellectual Property GmbH, priority 2011, published 2014).

How the values were obtained:
sugarbeets [1] = assay: Field trial: emergence of sugarbeets, seed treatment with isoxadifen; format: in vivo, sugarbeet; settings: seed treatment 0.015 mg ai/seed
Excerpt: (§1) The trials have been carried out under natural field conditions (plot trials, 10 square meter plots, 2-4 replications).
(§2) The applications have been done with seed treatment, pre- or post-emergence treatments straight (alone, 1 application) or sequential treatments e.g. seed treatment followed by pre-emergence and/or post-emergence spray applications. The pre- or post-emergence applications were made with spray applications using 100-300 l/water per hectare. The growth stage of the crops species at the time of application are reported in the result tables. The dose rates of the herbicidal active ingredients applied alone respective in sequential application are also described in the result tables.
(§3) The assessments have been done via visual ratings (0-100% scale) or counting. The trials have been harvested after crops reached the full maturity. After the harvest the total weight of kernels/seeds/beets per plot was measured. The results are reported as means over 2-4 replications. The time between applications and assessments or countings/harvest are described in the result tables as well.
(§4) The active ingredients have been applied to the untreated, dry seeds together with a carrier. After a short period of time to let the seeds dry, they were ready to be sown in the pot or field using standard equipments.

winter oilseed rape = assay: Field trial: grain yield effects on winter oilseed rape, sequential application of isoxadifen; format: in vivo
Excerpt: as §1, §2, §3, §4

spring wheat [2] = assay: Field trial: grain yield effects on spring wheat, seed treatment with isoxadifen-ethyl; format: in vivo; settings: 158 days after application
Excerpt: as §1, §2, §3, §4

spring wheat [3] = assay: Field trial: grain yield effects on spring wheat, postemergence treatment with isoxadifen-ethyl; format: in vivo; settings: 74 days after application
Excerpt: as §1, §2, §3

sugarbeet = assay: Field trial: yield effects on sugarbeet, sequential application of isoxadifen-ethyl; format: in vivo
Excerpt: as §1, §2, §3, §4

sugarbeets [4] = assay: Field trial: sugar yield of sugarbeets, sequential application; format: in vivo, sugarbeet
Excerpt: as §1, §2, §3, §4

corn = assay: Field trial: grain yield effect on corn, sequential treatment with isoxadifen-ethyl; format: in vivo
Excerpt: as §1, §2, §3, §4

winter wheat = assay: Field trial: grain yield effects on winter wheat, postemergence treatment with isoxadifen-ethyl; format: in vivo; settings: 84 days after application
Excerpt: as §1, §2, §3

[5] = tested on: spring oilseed rape (canola); assay: Field trial: grain yield effects on spring oilseed rape (canola), postemergence treatment with IDF-Et + TBC; format: in vivo; settings: 92 days after application
Excerpt: The trials have been carried out under natural field conditions (plot trials, 10 square meter plots, 2-4 replications). The applications have been done with seed treatment, pre- or post-emergence treatments straight (alone, 1 application) or sequential treatments e.g. seed treatment followed by pre-emergence and/or post-emergence spray applications. The pre- or post-emergence applications were made with spray applications using 100-300 l/water per hectare. The growth stage of the crops species at the time of application are reported in the result tables. The dose rates of the herbicidal active ingredients applied alone respective in sequential application are also described in the result tables. The assessments have been done via visual ratings (0-100% scale) or counting. The trials have been harvested after crops reached the full maturity. After the harvest the total weight of kernels/seeds/beets per plot was measured. The results are reported as means over 2-4 replications. The time between applications and assessments or countings/harvest are described in the result tables as well.

[6] = grain yield relative to UTC (100%), 100 g ai/ha post-emergence
[7] = grain yield, 100 g ai/ha post-emergence

O=C(O)C1=NOC(c2ccccc2)(c2ccccc2)C1 [IDF, 5,5-diphenyl-2-isoxazolinecarboxylic acid]
plants/18 row meters (sugarbeets [1]; emergence of sugarbeets, counting 28 days after planting): 74 plants/18 row meters | Relative (sugarbeets [1]; emergence relative to UTC (100%), sugarbeets, 28 days after planting): 113.8% | Difference(%) vs. UTC (sugarbeets [1]; emergence, sugarbeets, 28 days after planting): +13.8% | Yield (winter oilseed rape; 3 g ai/kg seed fb 3 × 50 g ai/ha post (4-6 leaves, stem elongation, beginning of flowering), grain yield at harvest, 102 days after application): 2.63 t/ha | Relative (winter oilseed rape; grain yield relative to UTC (100%), 3 g ai/kg seed fb 3 × 50 g ai/ha post): 105% | Difference(%) vs. UTC (winter oilseed rape; grain yield, 3 g ai/kg seed fb 3 × 50 g ai/ha post): +5%

CCOC(=O)C1=NOC(c2ccccc2)(c2ccccc2)C1 [IDF-Et, ethyl 5,5-diphenyl-2-isoxazolinecarboxylate]
Relative % (spring wheat [2]; grain yield relative to UTC (100%), seed treatment 0.5 g ai/kg seed): 108.7% | Difference(%) vs. UTC (spring wheat [2]; grain yield, seed treatment 0.5 g ai/kg seed): +8.7% | Yield (spring wheat [2]; seed treatment 0.5 g ai/kg seed (prior planting), grain yield at harvest): 6.58 t/ha | Yield (spring wheat [3]; 100 g ai/ha post-emergence spring, flag leaf/beginning of ear heading, grain yield at harvest): 7.67 t/ha | Relative % (spring wheat [3]; [6]): 113.2% | Difference(%) vs. UTC (spring wheat [3]; [7]): +13.2% | Yield (sugarbeet; 0.015 mg ai/seed fb 3 × 50 g ai/ha post (2-4, 6-8, 10-12 leaves), yield of beets by weight at harvest, 162 days after application): 65.3 t/ha | Relative (sugarbeet; beet yield relative to UTC (100%), 0.015 mg ai/seed fb 3 × 50 g ai/ha post): 111.2% | Difference(%) vs. UTC (sugarbeet; beet yield, 0.015 mg ai/seed fb 3 × 50 g ai/ha post): +11.2% | Sugar Yield (sugarbeets [4]; 0.015 mg ai/seed fb 3 × 50 g ai/ha post (2-4, 6-8, 10-12 leaves), sugar yield by weight at harvest, 162 days after application): 6.19 t/ha | Relative (sugarbeets [4]; sugar yield relative to UTC (100%), 0.015 mg ai/seed fb 3 × 50 g ai/ha post): 108.6% | Difference(%) vs. UTC (sugarbeets [4]; sugar yield, 0.015 mg ai/seed fb 3 × 50 g ai/ha post): +8.6% | Yield (corn; 0.5 g ai/kg seed fb 3 × 50 g ai/ha post (2-4, 6-8, 10-12 leaves), grain yield at harvest, 72 days after application): 10.80 t/ha | Relative (corn; grain yield relative to UTC (100%), 0.5 g ai/kg seed fb 3 × 50 g ai/ha post): 124% | Difference(%) vs. UTC (corn; grain yield, 0.5 g ai/kg seed fb 3 × 50 g ai/ha post): +24% | Yield (winter wheat; 100 g ai/ha post-emergence spring, beginning of stem elongation, grain yield at harvest): 8.09 t/ha | Relative % (winter wheat; [6]): 109.0% | Difference(%) vs. UTC (winter wheat; [7]): +9%

CC(C)(C)C(O)(CCc1ccc(Cl)cc1)Cn1cncn1 (stereo not drawn) [TBC, tebuconazole]
Relative % ([5]; grain yield relative to UTC (100%), canola, TBC 150, IDF-Et 100 g ai/ha): 101.8% | Difference(%) vs. UTC ([5]; grain yield, canola, TBC 150, IDF-Et 100 g ai/ha): +1.8% | Yield ([5]; spring oilseed rape (canola), TBC 150 g ai/ha, IDF-Et 100 g ai/ha, post-emergence spring, beginning of flowering, grain yield at harvest): 3.98 t/ha
